# Measurements as given in patent US20210392889A1, “COMPOSITIONS COMPRISING PYRIDINE CARBOXYLATE HERBICIDES WITH PDS INHIBITOR HERBICIDES” (Corteva Agriscience LLC, priority 2018, published 2021).
# Assays:
# [1] = system: Canada thistle (CIRAR, Cirsium arvense); experiment: Greenhouse postemergence herbicidal effect, visual injury after 20-22 d; type: in vivo
# From the text: (§1) Seeds of the desired test plant species were planted in a 90:10% v/v (volume/volume) mixture of PRO-MIX® BX (Premier Tech Horticulture, Quakertown, Pa., USA) and PROFILE® GREENS GRADE™ (Profile Products LLC, Buffalo Grove, Ill., USA) planting mixture, which typically has a pH of 5.2 to 6.2 and an organic matter content of at least 50 percent, in plastic pots with a surface area of 103.2 square centimeters (cm^2). In some aspects, to ensure good germination and healthy plants, a fungicide treatment and/or other chemical or physical treatment was applied. The plants were grown for 7-36 days (d) in a greenhouse with an approximate 14-hour (h) photoperiod which was maintained at about 23° C. during the day and 22° C. during the night. Nutrients and water were added on a regular basis and supplemental lighting was provided with overhead metal halide 1000-Watt lamps as necessary. The plants were employed for testing when they reached the second or third true leaf stage.
# (§2) Emulsifiable concentrates of each of each pyridine carboxylate herbicide (Compound A or Compound B) were prepared at 100 grams acid equivalent per liter (g ae/L). The emulsifiable concentrates also included a safener, cloquintocet-mexyl, at 120 grams active ingredient per liter (g ai/L). An aliquot of each emulsifiable concentrate was placed in a 25 mL glass vial and diluted with an aqueous mixture of 1.25% (v/v) ACTIROB® B esterified rapeseed oil (Bayer Crop Science, Research Triangle Park, N.C., USA) or MSO® Concentrate with LECI-TECH® methylated soybean oil (Loveland Products, Loveland, Colo., USA) to obtain concentrated stock solutions at the highest application rate for each herbicide, based upon a 12 milliliter (mL) application volume at a rate of 187 liters per hectare (L/ha). The concentrated stock solutions were further diluted with an aqueous mixture of 1.25% v/v ACTIROB® B or MSO® Concentrate with LECI-TECH® to obtain stock solutions at reduced application rates for each herbicide. Spray solutions of the herbicide combinations (Compound A or Compound B plus PDS inhibitor herbicide) were prepared by adding weighed amounts or aliquots of the PDS inhibitor herbicide to the stock solutions of Compound A or Compound B to form 12-mL spray solutions in two- or three-way combinations.
# (§3) The spray solutions were applied to the plant material with an overhead Mandel track sprayer equipped with 8002E nozzles calibrated to deliver 187 L/ha over an application area of 0.503 square meters (m^2) at a spray height of 18 inches ([…] centimeters (cm)) above the average plant canopy. Control plants were sprayed in the same manner with the solvent blank. All pyridine carboxylate herbicide (component a) application rates are given as “g ae/ha” and all PDS inhibitor herbicide (component b) application rates are given as “g ai/ha.”
# (§4) The treated plants and control plants were placed in a greenhouse as described above and watered by sub-irrigation to prevent wash-off of the test compounds. After 20-22 d, the condition of the test plants as compared with that of the control plants was determined visually and scored on a scale of 0 to 100 percent where 0 corresponds to no injury and 100 corresponds to complete kill.
# [2] = system: Italian ryegrass (LOLMU, Lolium multiflorum.); experiment: as above; type: in vivo; settings: 12.5 g/ha, Table 4
# From the text: as §1, §2, §3, §4
# [3] = system: barnyardgrass (ECHCG, Echinochloa crus-galli); experiment: as above; type: in vivo; settings: 12.5 g/ha, Table 4
# From the text: as §1, §2, §3, §4
# [4] = system: broad-leaf dock (RUMOB, Rumex obtusifolius); experiment: as above; type: in vivo; settings: 12.5 g/ha, Table 4
# From the text: as §1, §2, §3, §4
# [5] = system: common lambsquarters (CHEAL, Chenopodium album L.); experiment: as above; type: in vivo
# From the text: as §1, §2, §3, §4
# [6] = system: common rice (ORYSA, Oryza sativa); experiment: as above; type: in vivo; settings: 12.5 g/ha, Table 4
# From the text: as §1, §2, §3, §4
# [7] = system: giant foxtail (SETFA, Setaria faberi); experiment: as above; type: in vivo; settings: 12.5 g/ha, Table 4
# From the text: as §1, §2, §3, §4
# [8] = system: ivyleaf morningglory (IPOHE, Ipomoea hederacea); experiment: as above; type: in vivo; settings: 12.5 g/ha, Table 4
# From the text: as §1, §2, §3, §4
# [9] = system: large crabgrass (DIGSA, Digitaria sanguinalis); experiment: as above; type: in vivo; settings: 12.5 g/ha, Table 4
# From the text: as §1, §2, §3, §4
# [10] = system: soybean (GLXMA=Glycine max); experiment: as above; type: in vivo; settings: 12.5 g/ha, Table 4
# From the text: as §1, §2, §3, §4
# [11] = system: spring rape (BRSNN, Brassica napus); experiment: as above; type: in vivo
# From the text: as §1, §2, §3, §4
# [12] = system: velvetleaf (ABUTH, Abutilon theophrasti); experiment: as above; type: in vivo; settings: 12.5 g/ha, Table 4
# From the text: as §1, §2, §3, §4
# [13] = system: wild pansy (VIOTR, Viola tricolor); experiment: as above; type: in vivo; settings: 12.5 g/ha, Table 4
# From the text: as §1, §2, §3, §4
# [14] = system: Russian thistle (SASKR, Salsola kali); experiment: as above; type: in vivo
# From the text: as §1, §2, §3, §4
# [15] = system: kochia (KCHSC, Kochia scoparia); experiment: as above; type: in vivo
# From the text: as §1, §2, §3, §4
# [16] = system: wild buckwheat (POLCO, Polygonum convolvulus); experiment: as above; type: in vivo
# From the text: as §1, §2, §3, §4
# [17] = system: wild chamomile (MATCH, Matricaria chamomilla); experiment: as above; type: in vivo
# From the text: as §1, §2, §3, §4
# [18] = system: wild mustard (SINAR, Sinapis arvensis); experiment: as above; type: in vivo
# From the text: as §1, §2, §3, §4
# spring wheat (TRZAS) = experiment: Greenhouse postemergence phytotoxicity on crop, visual injury after 20-22 d; type: in vivo, Triticum aestivum
# From the text: as §1, §2, §3, §4
# spring barley (HORVS) = experiment: as above; type: in vivo, Hordeum vulgare
# From the text: as §1, §2, §3, §4
# [19] = system: pigweed (AMARE, Amaranthus retroflexus); experiment: Greenhouse postemergence herbicidal effect, visual injury after 20-22 d; type: in vivo
# From the text: as §1, §2, §3, §4
# [20] = system: winter rape (BRSNW, Brassica napus); experiment: as above; type: in vivo; settings: 60 g/ha, Table 1
# From the text: as §1, §2, §3, §4
structure (smiles),measurement,setting,value
"O=C(Nc1ccc(F)cc1)c1cccc(Oc2cccc(C(F)(F)F)c2)n1 [Picolinafen, N-(4-fluorophenyl)-6-[3-(trifluoromethyl)phenoxy]-2-pyridinecarboxamide, reference compound]",visual injury Obs,"[1]; 12.5 g/ha, Table 4",5%
same,visual injury Obs,[2],0%
same,visual injury Obs,[3],0%
same,visual injury Obs,[4],0%
same,visual injury Obs,"[5]; 12.5 g/ha, Table 4",20%
same,visual injury Obs,[6],5%
same,visual injury Obs,[7],0%
same,visual injury Obs,[8],5%
same,visual injury Obs,[9],50%
same,visual injury Obs,[10],20%
same,visual injury Obs,"[11]; 12.5 g/ha, Table 4",28%
same,visual injury Obs,[12],15%
same,visual injury Obs,[13],0%
"CCC(Oc1ccc(F)c(C(F)(F)F)c1)C(=O)NCc1ccccc1 (stereo not shown) [Beflubutamid, 2-[4-fluoro-3-(trifluoromethyl)phenoxy]-N-(phenylmethyl)butanamide, reference compound]",visual injury Obs,"[14]; 42.5 g/ha, Table 2",0%
same,visual injury Obs,"[5]; 42.5 g/ha, Table 2",0%
same,visual injury Obs,"[15]; 42.5 g/ha, Table 2",0%
same,visual injury Obs,"[11]; 42.5 g/ha, Table 2",25%
same,visual injury Obs,"[16]; 42.5 g/ha, Table 2",0%
same,visual injury Obs,"[17]; 42.5 g/ha, Table 2",0%
same,visual injury Obs,"[18]; 42.5 g/ha, Table 2",5%
same,visual injury Obs,"spring wheat (TRZAS); 42.5 g/ha, Table 2",0%
same,visual injury Obs,"spring barley (HORVS); 42.5 g/ha, Table 2",18%
"Cn1cc(-c2ccccc2)c(=O)c(-c2cccc(C(F)(F)F)c2)c1 [Fluridone, 1-methyl-3-phenyl-5-[3-(trifluoromethyl)-phenyl]-4(1H)-pyridinone, reference compound]",visual injury Obs,"[1]; 280 g/ha, Table 3",18%
same,visual injury Obs,"[14]; 280 g/ha, Table 3",0%
same,visual injury Obs,"[5]; 280 g/ha, Table 3",13%
same,visual injury Obs,"[19]; 280 g/ha, Table 3",23%
same,visual injury Obs,"[11]; 280 g/ha, Table 3",18%
same,visual injury Obs,"[16]; 280 g/ha, Table 3",13%
same,visual injury Obs,"[17]; 280 g/ha, Table 3",5%
same,visual injury Obs,"[18]; 280 g/ha, Table 3",45%
same,visual injury Obs,"spring wheat (TRZAS); 280 g/ha, Table 3",0%
same,visual injury Obs,"spring barley (HORVS); 280 g/ha, Table 3",0%
"O=C(Nc1ccc(F)cc1F)c1cccnc1Oc1cccc(C(F)(F)F)c1 [Diflufenican, N-(2,4-difluorophenyl)-2-[3-(trifluoromethyl)phenoxy]-3-pyridinecarboxamide, reference compound]",visual injury,"[1]; 60 g/ha, Table 1",5%
same,visual injury,"[14]; 60 g/ha, Table 1",18%
same,visual injury,"[5]; 60 g/ha, Table 1",13%
same,visual injury,"[15]; 60 g/ha, Table 1",13%
same,visual injury,"[19]; 60 g/ha, Table 1",20%
same,visual injury,"[16]; 60 g/ha, Table 1",10%
same,visual injury,"[17]; 60 g/ha, Table 1",0%
same,visual injury,"[18]; 60 g/ha, Table 1",23%
same,visual injury,[20],18%
same,visual injury,"spring wheat (TRZAS); 60 g/ha, Table 1",0%
same,visual injury,"spring barley (HORVS); 60 g/ha, Table 1",13%
